Measurements from ChEMBL document CHEMBL3885861, “Open TG-GATES”.

Species: Rattus norvegicus
Experiment: Open TG-GATES - Regimen: Daily Repeat
Format: toxicity, organism-based, Sprague-Dawley
Set-up: regimen Daily Repeat, gender Male, age 6 weeks
Details: in vivo, po, route gavage; for APTT / Bas / Eos / Fbg / Hb / Ht / Lym / MCH / MCHC / MCV / Mono / Neu / PT / Plat / RBC / Ret / WBC: tissue Blood; for KIDNEY_L / KIDNEY_R / KIDNEY_TOTAL: tissue Kidney; for LIVER: tissue Liver; for A/G / ALP / ALT / AST / BUN / CRE / Ca / Cl / DBIL / GLC / IP / K / LDH / Na / PL / RALB / TBIL / TC / TG / TP / gamma-GTP: tissue Plasma
[1] = 0 mg/kg, 72 h, dose level Control, time 3 day
[2] = 0 mg/kg, […], dose level Control, time 7 day
[3] = 0 mg/kg, […], dose level Control, time 14 day
[4] = 0 mg/kg, […], dose level Control, time 28 day
[5] = 10 mg/kg, 72 h, dose level Low, time 3 day
[6] = 10 mg/kg, […], dose level Low, time 7 day
[7] = 10 mg/kg, […], dose level Low, time 14 day
[8] = 10 mg/kg, […], dose level Low, time 28 day

## CCCc1cc(=O)[nH]c(=S)[nH]1 [PROPYLTHIOURACIL]
[1]
  TERMINAL_BW: 207.9 g
  APTT: 16.3 s
  Bas: 0%
  Eos: 0.8%
  Fbg: 235 mg/dL
  Hb: 13.5 g/dL
  Ht: 40.7%
  Lym: 73.4%
  MCH: 21.7 pg
  MCHC: 33.2%
  MCV: 65.5 fL
  Mono: 8.4%
  Neu: 17.4%
  PT: 12 s
  Plat: 113.1 x10_4/uL
  RBC: 622 x10_4/ul
  Ret: 7.6%
  WBC: 141.8 x10_2/uL
  KIDNEY_L: 0.9 g
  KIDNEY_R: 1 g
  KIDNEY_TOTAL: 1.9 g
  LIVER: 10.1 g
  A/G: 1.9
  ALP: 904.6 IU/L
  ALT: 38.6 IU/L
  AST: 65.4 IU/L
  BUN: 20.6 mg/dL
  CRE: 0.5 mg/dL
  Ca: 11.5 mg/dL
  Cl: 103.4 meq/L
  DBIL: 0.022 mg/dL
  GLC: 192.8 mg/dL
  IP: 8.7 mg/dL
  K: 5 meq/L
  LDH: 90.6 IU/L
  Na: 137.4 meq/L
  PL: 160.8 mg/dL
  RALB: 3.9 g/dL
  TBIL: 0.3 mg/dL
  TC: 85.6 mg/dL
  TG: 98.8 mg/dL
  TP: 6 g/dL
  gamma-GTP: 2 IU/L
[2]
  TERMINAL_BW: 242.6 g
  APTT: 16 s
  Bas: 0%
  Eos: 0.8%
  Fbg: 232.4 mg/dL
  Hb: 13.8 g/dL
  Ht: 41%
  Lym: 77.8%
  MCH: 21.4 pg
  MCHC: 33.6%
  MCV: 63.6 fL
  Mono: 5.6%
  Neu: 15.8%
  PT: 12 s
  Plat: 105.3 x10_4/uL
  RBC: 643.8 x10_4/ul
  Ret: 6.7%
  WBC: 127.9 x10_2/uL
  KIDNEY_L: 1.1 g
  KIDNEY_R: 1.1 g
  KIDNEY_TOTAL: 2.1 g
  LIVER: 11.7 g
  A/G: 1.8
  ALP: 1082.6 IU/L
  ALT: 34.2 IU/L
  AST: 67.4 IU/L
  BUN: 20.8 mg/dL
  CRE: 0.5 mg/dL
  Ca: 11.5 mg/dL
  Cl: 106.2 meq/L
  DBIL: 0.016 mg/dL
  GLC: 180 mg/dL
  IP: 8 mg/dL
  K: 5.2 meq/L
  LDH: 95.6 IU/L
  Na: 139 meq/L
  PL: 158.4 mg/dL
  RALB: 3.9 g/dL
  TBIL: 0.4 mg/dL
  TC: 77 mg/dL
  TG: 127 mg/dL
  TP: 6.1 g/dL
  gamma-GTP: 1.8 IU/L
[3]
  TERMINAL_BW: 275 g
  APTT: 16.2 s
  Bas: 0%
  Eos: 0.2%
  Fbg: 220.4 mg/dL
  Hb: 14.7 g/dL
  Ht: 43.9%
  Lym: 80.8%
  MCH: 21 pg
  MCHC: 33.4%
  MCV: 63 fL
  Mono: 4%
  Neu: 15%
  PT: 12.1 s
  Plat: 105.2 x10_4/uL
  RBC: 697.6 x10_4/ul
  Ret: 5%
  WBC: 125.5 x10_2/uL
  KIDNEY_L: 1.1 g
  KIDNEY_R: 1.1 g
  KIDNEY_TOTAL: 2.2 g
  LIVER: 12.2 g
  A/G: 1.8
  ALP: 719.8 IU/L
  ALT: 30 IU/L
  AST: 59.4 IU/L
  BUN: 18.8 mg/dL
  CRE: 0.7 mg/dL
  Ca: 11 mg/dL
  Cl: 107.4 meq/L
  DBIL: 0.006 mg/dL
  GLC: 183.6 mg/dL
  IP: 8.1 mg/dL
  K: 4.4 meq/L
  LDH: 87.4 IU/L
  Na: 140.8 meq/L
  PL: 150.4 mg/dL
  RALB: 3.9 g/dL
  TBIL: 0.3 mg/dL
  TC: 69.4 mg/dL
  TG: 111.2 mg/dL
  TP: 6.1 g/dL
  gamma-GTP: 0.8 IU/L
[4]
  TERMINAL_BW: 364.4 g
  APTT: 16.6 s
  Bas: 0%
  Eos: 0.6%
  Fbg: 223.8 mg/dL
  Hb: 15.3 g/dL
  Ht: 45.9%
  Lym: 86.8%
  MCH: 19.5 pg
  MCHC: 33.4%
  MCV: 58.4 fL
  Mono: 3.8%
  Neu: 8.8%
  PT: 12.1 s
  Plat: 105.4 x10_4/uL
  RBC: 786.4 x10_4/ul
  Ret: 2.8%
  WBC: 95.2 x10_2/uL
  KIDNEY_L: 1.3 g
  KIDNEY_R: 1.3 g
  KIDNEY_TOTAL: 2.6 g
  LIVER: 15.2 g
  A/G: 1.8
  ALP: 612.6 IU/L
  ALT: 27 IU/L
  AST: 59.8 IU/L
  BUN: 20.6 mg/dL
  CRE: 0.7 mg/dL
  Ca: 10.8 mg/dL
  Cl: 106.8 meq/L
  DBIL: 0.012 mg/dL
  GLC: 169.4 mg/dL
  IP: 6.7 mg/dL
  K: 4.5 meq/L
  LDH: 84 IU/L
  Na: 139.8 meq/L
  PL: 161.6 mg/dL
  RALB: 4 g/dL
  TBIL: 0.2 mg/dL
  TC: 76.6 mg/dL
  TG: 153.8 mg/dL
  TP: 6.3 g/dL
  gamma-GTP: 1.6 IU/L
[5]
  TERMINAL_BW: 207 g
  APTT: 15.4 s
  Bas: 0%
  Eos: 0%
  Fbg: 238.6 mg/dL
  Hb: 13.5 g/dL
  Ht: 40.4%
  Lym: 75.2%
  MCH: 21.4 pg
  MCHC: 33.3%
  MCV: 64.3 fL
  Mono: 7.4%
  Neu: 17.4%
  PT: 12.4 s
  Plat: 93.7 x10_4/uL
  RBC: 629.4 x10_4/ul
  Ret: 6.6%
  WBC: 124.3 x10_2/uL
  KIDNEY_L: 0.9 g
  KIDNEY_R: 0.9 g
  KIDNEY_TOTAL: 1.8 g
  LIVER: 10 g
  A/G: 2
  ALP: 1039.8 IU/L
  ALT: 30.4 IU/L
  AST: 54.4 IU/L
  BUN: 20 mg/dL
  CRE: 0.5 mg/dL
  Ca: 11.2 mg/dL
  Cl: 105.8 meq/L
  DBIL: 0 mg/dL
  GLC: 185.4 mg/dL
  IP: 7.1 mg/dL
  K: 4.7 meq/L
  LDH: 81.2 IU/L
  Na: 138 meq/L
  PL: 161.4 mg/dL
  RALB: 3.9 g/dL
  TBIL: 0.3 mg/dL
  TC: 97.6 mg/dL
  TG: 87.4 mg/dL
  TP: 5.9 g/dL
  gamma-GTP: 2 IU/L
[6]
  TERMINAL_BW: 233.5 g
  APTT: 15.3 s
  Bas: 0%
  Eos: 0.2%
  Fbg: 252.2 mg/dL
  Hb: 13.9 g/dL
  Ht: 41.5%
  Lym: 86.6%
  MCH: 21 pg
  MCHC: 33.4%
  MCV: 62.8 fL
  Mono: 6.6%
  Neu: 6.6%
  PT: 12.6 s
  Plat: 117.2 x10_4/uL
  RBC: 662.4 x10_4/ul
  Ret: 4%
  WBC: 116 x10_2/uL
  KIDNEY_L: 1 g
  KIDNEY_R: 1 g
  KIDNEY_TOTAL: 1.9 g
  LIVER: 12.4 g
  A/G: 1.8
  ALP: 740.8 IU/L
  ALT: 27.6 IU/L
  AST: 48.8 IU/L
  BUN: 20.4 mg/dL
  CRE: 0.5 mg/dL
  Ca: 11.5 mg/dL
  Cl: 105.6 meq/L
  DBIL: 0.008 mg/dL
  GLC: 169.4 mg/dL
  IP: 7.2 mg/dL
  K: 4.9 meq/L
  LDH: 83.8 IU/L
  Na: 139.6 meq/L
  PL: 174.2 mg/dL
  RALB: 4.1 g/dL
  TBIL: 0.3 mg/dL
  TC: 108 mg/dL
  TG: 116.6 mg/dL
  TP: 6.4 g/dL
  gamma-GTP: 1.4 IU/L
[7]
  TERMINAL_BW: 245.3 g
  APTT: 16.4 s
  Bas: 0%
  Eos: 0.4%
  Fbg: 194.6 mg/dL
  Hb: 14.7 g/dL
  Ht: 43.7%
  Lym: 90.6%
  MCH: 20.6 pg
  MCHC: 33.7%
  MCV: 61.1 fL
  Mono: 3.8%
  Neu: 5.2%
  PT: 14 s
  Plat: 101.1 x10_4/uL
  RBC: 715.2 x10_4/ul
  Ret: 1.3%
  WBC: 120.9 x10_2/uL
  KIDNEY_L: 0.9 g
  KIDNEY_R: 0.9 g
  KIDNEY_TOTAL: 1.7 g
  LIVER: 10.5 g
  A/G: 1.7
  ALP: 568 IU/L
  ALT: 27 IU/L
  AST: 52.8 IU/L
  BUN: 26.6 mg/dL
  CRE: 0.7 mg/dL
  Ca: 11.1 mg/dL
  Cl: 106.4 meq/L
  DBIL: 0.006 mg/dL
  GLC: 178.6 mg/dL
  IP: 6.3 mg/dL
  K: 4.3 meq/L
  LDH: 68.4 IU/L
  Na: 141 meq/L
  PL: 152.6 mg/dL
  RALB: 4.2 g/dL
  TBIL: 0.2 mg/dL
  TC: 96.4 mg/dL
  TG: 59.8 mg/dL
  TP: 6.7 g/dL
  gamma-GTP: 2.2 IU/L
[8]
  TERMINAL_BW: 243.1 g
  APTT: 15.2 s
  Bas: 0%
  Eos: 1.6%
  Fbg: 176.8 mg/dL
  Hb: 16.3 g/dL
  Ht: 48.4%
  Lym: 85.4%
  MCH: 19.3 pg
  MCHC: 33.7%
  MCV: 57.5 fL
  Mono: 4.8%
  Neu: 8.2%
  PT: 14.8 s
  Plat: 83 x10_4/uL
  RBC: 843.2 x10_4/ul
  Ret: 0.7%
  WBC: 61.3 x10_2/uL
  KIDNEY_L: 0.8 g
  KIDNEY_R: 0.8 g
  KIDNEY_TOTAL: 1.7 g
  LIVER: 7.9 g
  A/G: 2
  ALP: 628 IU/L
  ALT: 35.4 IU/L
  AST: 63.4 IU/L
  BUN: 25.8 mg/dL
  CRE: 0.7 mg/dL
  Ca: 10.5 mg/dL
  Cl: 108.6 meq/L
  DBIL: 0.056 mg/dL
  GLC: 161 mg/dL
  IP: 5.7 mg/dL
  K: 4.2 meq/L
  LDH: 62.6 IU/L
  Na: 141.2 meq/L
  PL: 150.6 mg/dL
  RALB: 4.3 g/dL
  TBIL: 0.2 mg/dL
  TC: 100.8 mg/dL
  TG: 44.6 mg/dL
  TP: 6.5 g/dL
  gamma-GTP: 3.2 IU/L
